Assay results taken from ChEMBL document CHEMBL1151644, “Alkaloids and coumarins of Casimiroa edulis” (1985).

Assays:
Rattus norvegicus [1] = assay: Diuretic activity in rat at 125 mg/kg; assay type: functional, Urine
Rattus norvegicus [2] = assay: Antiinflammatory activity against carrageenan-induced hind paw edema in rat at 100 mg/kg; assay type: functional

CCCCCCCCCCCCCCCCCCCCCCCCCCCCCCC [HENTRIACONTANE]
Activity (Rattus norvegicus [1]): 84%
Activity (Rattus norvegicus [2]): 30.4%

COc1c2ccoc2c(OC)c2oc(=O)ccc12 [ISOPIMPINELLIN]
Activity (Rattus norvegicus [1]): 84%
Activity (Rattus norvegicus [2]): 30.4%
